Data from article PMC2782732 (ACS chemical biology, 2008).

Molecular target: dengue E protein (Dengue virus type 2, UniProt P12823)
Assay type: binding
Conditions: BOG plus dengue E protein, on-resonance irradiation at −2 ppm

Structure (SMILES): CCCCCCCCO[C@@H]1O[C@H](CO)[C@@H](O)[C@H](O)[C@H]1O [BOG, N-octyl-β-D-glucoside]
- STD NMR signal of ligand with E protein: strong signals
